Measurements from patent publication US20250313563A1, “GLYCOGEN SYNTHASE KINASE 3 INHIBITORS AND USES THEREOF” (The Broad Institute, Inc., priority 2022, published 2025).
pIC50: −log10 of the molar value. Where two headings read alike, the source gives them in different places.

What was measured:
[1] = target: GSK3α (GST-full length GSK3α) (Homo sapiens (Human), UniProt P49840); test: GSK3α TR-FRET kinase assay; format: biochemical
Outline: (§1)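 1 nM GST-GSK3α/β + cpd, 30 min preinc; add 200 nM biotin-pS645 GS(631-650) peptide + ATP (α 4 μM / β 2 μM, or 1 mM); 100 min RT, 50 mM Tris pH 7.5, 20 mM MgCl2, 1% DMSO; EDTA stop; SA-d2/Tb-pSer641 Ab 60 min; 665/615 ratio → IC50.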

[2] = target: GSK3b (GST-full length GSK3b) (Homo sapiens (Human), UniProt P49841); test: GSK3b TR-FRET kinase assay; format: biochemical
Chain of GSK3b (GST-full length GSK3b) (P49841 whole entry): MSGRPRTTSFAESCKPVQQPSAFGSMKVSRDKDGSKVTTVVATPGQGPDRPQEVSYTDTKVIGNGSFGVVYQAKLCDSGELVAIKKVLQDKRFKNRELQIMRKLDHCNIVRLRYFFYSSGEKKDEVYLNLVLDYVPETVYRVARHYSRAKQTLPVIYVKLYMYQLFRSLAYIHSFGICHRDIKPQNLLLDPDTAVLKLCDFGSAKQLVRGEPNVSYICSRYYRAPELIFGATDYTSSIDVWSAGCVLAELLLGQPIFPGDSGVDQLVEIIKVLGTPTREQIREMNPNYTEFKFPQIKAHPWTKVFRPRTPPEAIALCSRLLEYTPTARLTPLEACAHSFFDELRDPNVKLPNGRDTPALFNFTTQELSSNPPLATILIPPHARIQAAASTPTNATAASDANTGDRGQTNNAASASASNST
Outline: as §1

[3] = 1 nM GSK3α, 4 μM ATP, 30 minute preincubation, read-out: GSK3-A TR-FRET BIOCHEMICAL (TR-FRET), IC50
[4] = 1 nM GSK3b, 2 μM ATP, 30 minute preincubation, read-out: GSK3-B TR-FRET BIOCHEMICAL (TR-FRET), IC50
[5] = 1 nM GSK3α, 4 μM ATP, 30 minute preincubation, Table 16, read-out: GSK3-A TR-FRET BIOCHEMICAL (TR-FRET), IC50
[6] = 1 nM GSK3b, 2 μM ATP, 30 minute preincubation, Table 16, read-out: GSK3-B TR-FRET BIOCHEMICAL (TR-FRET), IC50
[7] = read-out: GSK3-A (TR-FRET 1 mM ATP), GMean, IC50, 1 mM ATP, geometric mean
[8] = read-out: GSK3-B (TR-FRET 1 mM ATP), GMean, IC50, 1 mM ATP, geometric mean

Chain of GSK3α (GST-full length GSK3α) (P49840 whole entry): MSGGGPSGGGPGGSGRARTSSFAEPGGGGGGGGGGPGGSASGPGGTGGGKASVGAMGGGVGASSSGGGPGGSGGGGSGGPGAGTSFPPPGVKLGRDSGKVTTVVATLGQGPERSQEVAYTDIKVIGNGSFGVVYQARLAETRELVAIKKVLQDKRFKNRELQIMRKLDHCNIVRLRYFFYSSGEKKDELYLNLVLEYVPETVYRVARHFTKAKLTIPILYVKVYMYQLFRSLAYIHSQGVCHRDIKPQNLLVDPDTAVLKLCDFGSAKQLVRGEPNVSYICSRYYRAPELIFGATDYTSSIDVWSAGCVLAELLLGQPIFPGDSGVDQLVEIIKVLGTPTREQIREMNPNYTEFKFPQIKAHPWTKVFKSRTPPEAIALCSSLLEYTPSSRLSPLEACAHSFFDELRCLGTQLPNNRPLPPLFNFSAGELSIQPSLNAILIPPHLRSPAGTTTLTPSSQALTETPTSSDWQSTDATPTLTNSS

Row | Compound | pIC50 [1, 5] | pIC50 [2, 6] | pIC50 [1, 7] | pIC50 [2, 8] | other results
1 | CCC1(c2cccc(C(F)(F)F)c2)C2=C(CCN(CC(F)(F)F)C2=O)Nc2n[nH]cc21 (stereo not shown) [Compound 912206] |  |  |  |  | pIC50 [1, 3]: ≥ 7.00; pIC50 [2, 4]: 6.00 to 7.00
2 | CC1(C)CC(=O)C2=C(C1)Nc1n[nH]cc1C21CCC2(CCC(=O)N2C(=O)OC(C)(C)C)CC1 (stereo not shown) [Compound 912217] |  |  |  |  | pIC50 [1, 3]: 5.30 to 6.00; pIC50 [2, 4]: < 5.30
3 | CCC1(c2cccc(C(F)(F)F)c2)C2=C(CCNC2=O)Nc2n[nH]cc21 (stereo not shown) [Compound 912622] |  |  |  |  | pIC50 [1, 3]: 6.00 to 7.00; pIC50 [2, 4]: 5.30 to 6.00
4 | CC[C@]1(c2cccc(C(F)(F)F)c2)C2=C(CCNC2=O)Nc2n[nH]cc21 [Compound 912668] |  |  |  |  | pIC50 [1, 3]: < 5.30; pIC50 [2, 4]: < 5.30
5 | CC1(C)CC(=O)C2=C(C1)Nc1n[nH]cc1C21COC2(CN(S(=O)(=O)c3ccccc3)C2)C1 (stereo not shown) [Compound 913002] |  |  |  |  | pIC50 [1, 3]: 6.00 to 7.00; pIC50 [2, 4]: 5.30 to 6.00
6 | CC[C@@]1(c2cccc(C(F)(F)F)c2)C2=C(CC(C)(C)NC2=O)Nc2n[nH]cc21 [Compound 913004] |  |  |  |  | pIC50 [1, 3]: < 5.30; pIC50 [2, 4]: < 5.30
7 | CCC1(c2cccc(C(F)(F)F)c2)C2=C(CC(C)(C)NC2=O)Nc2n[nH]cc21 (stereo not shown) [Compound 913006, 4-ethyl-7,7-dimethyl-4-(3-(trifluoromethyl)phenyl)-2,4,6,7,8,9-hexahydro-5H-pyrazolo[3,4-b][1,6]naphthyridin-5-one] |  |  |  |  | pIC50 [1, 3]: ≥ 7.00; pIC50 ([1]; GSK3-A (TR-FRET 1 mM ATP), GMean, IC50, 1 mM ATP, geometric mean): 6.00 to 7.00; pIC50 [2, 4]: ≥ 7.00; pIC50 ([2]; GSK3-B (TR-FRET 1 mM ATP), GMean, IC50, 1 mM ATP, geometric mean): < 5.30
8 | CCC1(c2cccc(-c3ccncc3F)c2)C2=C(CC(C)(C)CC2=O)Nc2n[nH]c(C)c21 (stereo not shown) [Compound 913017] | 6.00 to 7.00 | 6.00 to 7.00 |  |  | 
9 | CCC1(c2cccc(-c3ccnc(C)c3)c2)C2=C(CC(C)(C)CC2=O)Nc2n[nH]c(C)c21 (stereo not shown) [Compound 913018] | ≥ 7.00 | ≥ 7.00 | 6.00 to 7.00 | 5.30 to 6.00 | 
10 | CCC1(c2cccc(-c3ccnc(C(F)(F)F)c3)c2)C2=C(CC(C)(C)CC2=O)Nc2n[nH]c(C)c21 (stereo not shown) [Compound 913020] | ≥ 7.00 | ≥ 7.00 |  |  | 
11 | CC[C@@]1(c2cccc(-c3ccnc(N(C)C)c3)c2)C2=C(CC(C)(C)CC2=O)Nc2n[nH]c(C)c21 [Compound 913021] | ≥ 7.00 | ≥ 7.00 |  |  | 
12 | CCC1(c2cccc(-c3ccncc3C)c2)C2=C(CC(C)(C)CC2=O)Nc2n[nH]c(C)c21 (stereo not shown) [Compound 913022] | 6.00 to 7.00 | 5.30 to 6.00 |  |  | 
13 | CCC1(c2cccc(-c3ccnn3C)c2)C2=C(CC(C)(C)CC2=O)Nc2n[nH]c(C)c21 (stereo not shown) [Compound 913023] |  |  | ≥ 7.00 | 6.00 to 7.00 | 
14 | CCC1(c2cccc(-c3cn[nH]c3)c2)C2=C(CC(C)(C)CC2=O)Nc2n[nH]c(C)c21 (stereo not shown) [Compound 913025] | ≥ 7.00 | ≥ 7.00 | ≥ 7.00 | 6.00 to 7.00 | 
15 | CCC1(c2cccc(-c3c(C)nn(C)c3C)c2)C2=C(CC(C)(C)CC2=O)Nc2n[nH]c(C)c21 (stereo not shown) [Compound 913026] | 6.00 to 7.00 | 6.00 to 7.00 |  |  | 
16 | CCC1(c2cccc(-c3cnn(C4CC4)c3)c2)C2=C(CC(C)(C)CC2=O)Nc2n[nH]cc21 (stereo not shown) [Compound 913028] | ≥ 7.00 | ≥ 7.00 |  |  | 
17 | CC[C@@]1(c2cccc(-c3cn(C)nc3C(C)C)c2)C2=C(CC(C)(C)CC2=O)Nc2n[nH]c(C)c21 [Compound 913029] | ≥ 7.00 | ≥ 7.00 |  |  | 
18 | CCC1(c2cccc(-c3cnn(C)c3)c2)C2=C(CC(C)(C)CC2=O)Nc2n[nH]c(C)c21 (stereo not shown) [Compound 913031] | ≥ 7.00 | ≥ 7.00 |  |  | 
19 | CC[C@@]1(c2cccc(-c3cncn3C)c2)C2=C(CC(C)(C)CC2=O)Nc2n[nH]c(C)c21 [Compound 913032] | ≥ 7.00 | ≥ 7.00 | ≥ 7.00 | ≥ 7.00 | 
20 | CCC1(c2cccc(-c3cnn4c3CCCC4)c2)C2=C(CC(C)(C)CC2=O)Nc2n[nH]c(C)c21 (stereo not shown) [Compound 913033] | 6.00 to 7.00 | 5.30 to 6.00 |  |  | 
21 | CCC1(c2cccc(-c3cn(C)nc3C)c2)C2=C(CC(C)(C)CC2=O)Nc2n[nH]c(C)c21 (stereo not shown) [Compound 913034] | 5.30 to 6.00 | < 5.30 |  |  | 
22 | CC[C@]1(c2cccc(-c3cn(C)nc3C)c2)C2=C(CC(C)(C)CC2=O)Nc2n[nH]c(C)c21 [Compound 913035] | ≥ 7.00 | ≥ 7.00 | ≥ 7.00 | 6.00 to 7.00 | 
23 | CCC1(c2cccc(-c3cnn4c3CCCC4)c2)C2=C(CC(C)(C)CC2=O)Nc2n[nH]c(C)c21 (stereo not shown) [Compound 913036] | ≥ 7.00 | ≥ 7.00 | ≥ 7.00 | 6.00 to 7.00 | 
24 | CC[C@]1(c2cccc(-c3cncn3C)c2)C2=C(CC(C)(C)CC2=O)Nc2n[nH]c(C)c21 [Compound 913037] | ≥ 7.00 | 6.00 to 7.00 |  |  | 
25 | CCC1(c2cccc(-c3cnn(C)c3)c2)C2=C(CC(C)(C)CC2=O)Nc2n[nH]c(C)c21 (stereo not shown) [Compound 913038] | 6.00 to 7.00 | 5.30 to 6.00 |  |  | 
26 | CC1(C)CC(=O)C2=C(C1)Nc1n[nH]cc1C21CCC2(CCC(=O)N2)CC1 (stereo not shown) [Compound 913056] |  |  |  |  | pIC50 [1, 3]: 6.00 to 7.00; pIC50 [2, 4]: 5.30 to 6.00

Second part, led by results:

Row | pIC50 [1, 5] | pIC50 [2, 6] | pIC50 [1, 7] | pIC50 [2, 8] | Compound | other results
27 | 5.30 to 6.00 | < 5.30 |  |  | CCC1(c2cccc(-c3ccn(C)n3)c2)C2=C(CC(C)(C)CC2=O)Nc2n[nH]c(C)c21 (stereo not shown) [Compound 913039] | 
28 | 6.00 to 7.00 | 5.30 to 6.00 |  |  | CC[C@]1(c2cccc(-c3cn(C)nc3C(C)C)c2)C2=C(CC(C)(C)CC2=O)Nc2n[nH]c(C)c21 [Compound 913040] | 
29 | < 5.30 | < 5.30 |  |  | CC[C@]1(c2cccc(-c3cnn(CCOC)c3)c2)C2=C(CC(C)(C)CC2=O)Nc2n[nH]c(C)c21 [Compound 913042] | 
30 | ≥ 7.00 | ≥ 7.00 | ≥ 7.00 | 6.00 to 7.00 | CC[C@]1(c2cccc(-c3c(C)nn(C)c3C)c2)C2=C(CC(C)(C)CC2=O)Nc2n[nH]c(C)c21 [Compound 913043] | 
31 | 6.00 to 7.00 | 6.00 to 7.00 |  |  | CCC1(c2cccc(-c3cn[nH]c3)c2)C2=C(CC(C)(C)CC2=O)Nc2n[nH]c(C)c21 (stereo not shown) [Compound 913044] | 
32 |  |  | ≥ 7.00 | 6.00 to 7.00 | CCC1(c2cccc(-c3cnn(C)c3C)c2)C2=C(CC(C)(C)CC2=O)Nc2n[nH]c(C)c21 (stereo not shown) [Compound 913045] | 
33 | ≥ 7.00 | ≥ 7.00 | ≥ 7.00 | 6.00 to 7.00 | CC[C@]1(c2cccc(-c3ccncc3C)c2)C2=C(CC(C)(C)CC2=O)Nc2n[nH]cc21 [Compound 913047] | 
34 | 6.00 to 7.00 | < 5.30 |  |  | CCC1(c2cccc(-c3ccnc(C(F)(F)F)c3)c2)C2=C(CC(C)(C)CC2=O)Nc2n[nH]c(C)c21 (stereo not shown) [Compound 913049] | 
35 | ≥ 7.00 | ≥ 7.00 | ≥ 7.00 | 6.00 to 7.00 | CC[C@]1(c2cccc(-c3cc(C)ncc3C)c2)C2=C(CC(C)(C)CC2=O)Nc2n[nH]c(C)c21 [Compound 913050] | 
36 | 6.00 to 7.00 | < 5.30 |  |  | CCC1(c2cccc(-c3ccnc(C)c3)c2)C2=C(CC(C)(C)CC2=O)Nc2n[nH]c(C)c21 (stereo not shown) [Compound 913051] | 
37 | ≥ 7.00 | ≥ 7.00 | ≥ 7.00 | 6.00 to 7.00 | CCC1(c2cccc(-c3ccncc3F)c2)C2=C(CC(C)(C)CC2=O)Nc2n[nH]c(C)c21 (stereo not shown) [Compound 913052] | 
38 | ≥ 7.00 | ≥ 7.00 |  |  | CCC1(c2cccc(-c3ccnc(OC)c3)c2)C2=C(CC(C)(C)CC2=O)Nc2n[nH]c(C)c21 (stereo not shown) [Compound 913053] | 
39 |  |  | ≥ 7.00 | 6.00 to 7.00 | CC(=O)N1CC2(C1)CC1(CO2)C2=C(CC(C)(C)CC2=O)Nc2n[nH]cc21 (stereo not shown) [Compound 913058] | pIC50 [1, 3]: ≥ 7.00; pIC50 [2, 4]: ≥ 7.00
